In patent US20220204497A1, “NOVEL COMPOUND HAVING ANTICANCER ACTIVITY, AND METHOD FOR PRODUCING SAME” (MEDICINAL BIOCONVERGENCE RESEARCH CENTER, priority 2019, published 2022):

tested on: A549 cells; test: Cell viability by MTT method in A549 cells; assay type: cell-based; parameters: concentration or dose not given beside the values; conditions: 72 hours treatment

Row | SMILES | Cell Viability (% inhibition) (A549)
1 | COc1ccc(-c2cc(NC(=O)[C@H](Cc3c[nH]c4ccccc34)NS(=O)(=O)c3ccc(C)cc3)on2)cc1 [Compound 126, (S)-3-(1H-indol-3-yl)-N-(3-(4-methoxyphenyl)isoxazol-5-yl)-2-(4-methylphenylsulfonamido)propanamide] | 85.53 ± 0.66%
2 | Cc1ccc(S(=O)(=O)N[C@@H](CO)C(=O)Nc2ccc(N3CCOCC3)cc2)cc1 [Compound 130, (S)-3-Hydroxy-2-(4-methylphenylsulfonamido)-N-(4-morpholinophenyl)propanamide] | 16.62 ± 10.08%
3 | Cc1ccc(S(=O)(=O)N[C@H](C(=O)Nc2ccc(N3CCOCC3)cc2)C(C)C)cc1 [Compound 131, (S)-3-Methyl-2-(4-methylphenylsulfonamido)-N-(4-morpholinophenyl)butanamide] | 5.78 ± 7.70%
4 | O=C(Nc1ccccc1)N[C@@H](Cc1c[nH]c2ccccc12)C(=O)N1CCOCC1 [Compound 132, (S)-1-(3-(1H-indol-3-yl)-1-morpholino-1-oxopropan-2-yl)-3-phenylurea] | −11.18 ± 5.31%
5 | Cc1ccc(S(=O)(=O)N[C@@H](Cc2c[nH]c3ccccc23)C(=O)Nc2ccc(N3CCOCC3)nc2)cc1 [Compound 133, (S)-3-(1H-indol-3-yl)-2-(4-methylphenylsulfonamido)-N-(6-morpholinopyridin-3-yl)propanamide] | 6.18 ± 6.05%
6 | N#Cc1ccc(S(=O)(=O)N[C@@H](Cc2c[nH]c3ccccc23)C(=O)Nc2ccc(N3CCOCC3)cc2)cc1 [Compound 135, (S)-2-(4-Cyanophenylsulfonamido)-3-(1H-indol-3-yl)-N-(4-morpholinophenyl)propanamide] | 55.02 ± 1.06%
7 | O=C(Nc1ccc(N2CCOCC2)cc1)[C@H](Cc1c[nH]c2ccccc12)NS(=O)(=O)c1ccc(C(F)(F)F)nc1 [Compound 136, (S)-3-(1H-indol-3-yl)-N-(4-morpholinophenyl)-2-(6-(trifluoromethyl)pyridine-3-sulfonamido)propanamide] | 87.12 ± 2.3%
8 | COC(=O)CC[C@@H](C(=O)Nc1ccc(N2CCOCC2)cc1)N(C)S(=O)(=O)c1ccccc1 [Compound 137, (S)-Methyl 4-(methylphenylsulfonamido)-5-(4-morpholinophenylamino)-5-oxopentanoate] | 17.75 ± 5.15%
9 | Cc1ccc(S(=O)(=O)N[C@@H](Cn2cnc3ccccc32)C(=O)Nc2ccc(N3CCOCC3)cc2)cc1 [Compound 138, (S)-3-(1H-benzo[d]imidazol-1-yl)-2-(4-methylphenylsulfonamido)-N-(4-morpholinophenyl)propanamide] | 14.63 ± 1.98%
10 | Cc1ccc(S(=O)(=O)N[C@H](Cn2c(=O)c(=O)[nH]c3ccccc32)C(=O)Nc2ccc(N3CCOCC3)cc2)cc1 [Compound 139, (R)-3-(2,3-dioxo-3,4-dihydroquinoxalin-1(2H)-yl)-2-(4-methylphenylsulfonamido)-N-(4-morpholinophenyl)propanamide] | 9.99 ± 0.24%
11 | Cc1ccc(S(=O)(=O)N[C@@H](CCCCNC(=O)c2ccc(C(F)(F)F)cn2)C(=O)Nc2ccc(N3CCOCC3)cc2)cc1 [Compound 140, (S)—N-(5-(4-methylphenylsulfonamido)-6-(4-morpholinophenylamino)-6-oxohexyl)-5-(trifluoromethyl)picolinamide] | 86.68 ± 1.25%
12 | Cc1ccc(S(=O)(=O)N[C@@H](CCC(=O)OCc2ccccc2)C(=O)Nc2ccc(N3CCOCC3)cc2)cc1 [Compound 141, (S)-Benzyl 4-(4-methylphenylsulfonamido)-5-(4-morpholinophenylamino)-5-oxopentanoate] | 40.15 ± 6.15%
13 | Cc1ccc(S(=O)(=O)N[C@@H](CC(=O)OCc2ccccc2)C(=O)Nc2ccc(N3CCOCC3)cc2)cc1 [Compound 142, (S)-Benzyl 3-(4-methylphenylsulfonamido)-4-(4-morpholinophenylamino)-4-oxobutanoate] | 15.9 ± 4.84%
14 | CC(C)C[C@H](NS(=O)(=O)c1ccc(C(=O)O)cc1)C(=O)N1CCOCCOCCOCC1 [Compound 157, (S)-4-(N-(4-methyl-1-oxo-1-(1,4,7-trioxa-10-azacyclododecan-10-yl)pentan-2-yl)sulfamoyl)benzoic acid] | 64.40 ± 2.96%
15 | Cc1ccc(S(=O)(=O)N[C@@H](Cc2c[nH]c3ccccc23)C(=O)NNC(=O)c2ccc(N3CCOCC3)cc2)cc1 [Compound 163, (S)—N-(3-(1H-indol-3-yl)-1-(2-(4-morpholinobenzoyl)hydrazinyl)-1-oxopropan-2-yl)-4-methylbenzenesulfonamide] | 18.63 ± 9.48%
16 | Cc1ccc(S(=O)(=O)N[C@@H](Cc2c[nH]c3ccccc23)C(=O)Nc2nc(-c3ccc(N4CCOCC4)cc3)cs2)cc1 [Compound 164, (S)-3-(1-indol-3-yl)-2-(4-methylphenylsulfonamido)-N-(4-(4-morpholinophenyl)thiazol-2-yl)propanamide] | 88.05 ± 0.8%

Row | SMILES | Cell Viability (% inhibition) (A549)
17 | COC(=O)c1ccc(-c2csc(NC(=O)[C@H](Cc3c[nH]c4ccccc34)NS(=O)(=O)c3ccc(C)cc3)n2)cc1 [Compound 165, (S)-Methyl 4-(2-(3-(1H-indol-3-yl)-2-(4-methylphenylsulfonamido)propanamido)thiazol-4-yl)benzoate] | 78.22 ± 0.97%
18 | O=C(OCc1ccccc1)[C@H](Cc1c[nH]c2ccccc12)NS(=O)(=O)c1ccc(C(F)(F)F)nc1 [Compound 166, (S)-Benzyl 3-(1H-indol-3-yl)-2-(6-(trifluoromethyl)pyridine-3-sulfonamido)propanoate] | 97.48 ± 1%
19 | Cc1ccc(S(=O)(=O)N[C@@H](CCC(=O)Nc2ccc([N+](=O)[O-])cc2)C(=O)Nc2ccc(N3CCOCC3)cc2)cc1 [Compound 167, (S)-2-(4-Methylphenylsulfonamido)-N^1-(morpholinophenyl)-N^5-(4-nitrophenyl)pentanediamide] | 85.33 ± 1.28%
20 | Cc1ccc(S(=O)(=O)N[C@@H](CCCCNC(=O)OCc2ccccc2)C(=O)Nc2ccc(N3CCOCC3)cc2)cc1 [Compound 168, (S)-Benzyl 5-(4-methylphenylsulfonamido)-6-(4-morpholinophenylamino)-6-oxohexylcarbamate] | 84.11 ± 1.25%
21 | Cc1ccc(S(=O)(=O)N[C@@H](CCCCN)C(=O)Nc2ccc(N3CCOCC3)cc2)cc1 [Compound 169, (S)-6-Amino-2-(4-methylphenylsulfonamido)-N-(4-morpholinophenyl)hexanamide] | 3.97 ± ? .91%
22 | COc1cc(OC)cc(C(=O)NCCCC[C@H](NS(=O)(=O)c2ccc(C)cc2)C(=O)Nc2ccc(N3CCOCC3)cc2)c1 [Compound 170, (S)-3,5-Dimethoxy-N-(5-(4-methylphenylsulfonamido)-6-(4-morpholinophenylamino)-6-oxohexyl)benzamide] | 31.41 ± 4.96%
23 | COc1ccc(CNC(=O)CC[C@H](NS(=O)(=O)c2ccc(C)cc2)C(=O)Nc2ccc(N3CCOCC3)cc2)cc1 [Compound 171, (S)—N^5-(4-Methoxybenzyl)-2-(4-methylphenylsulfonamido)-N^1-(4-morpholinophenyl)pentanediamide] | 40.19 ± 4.29%
24 | Cc1ccc(S(=O)(=O)N[C@@H](CCC(=O)Nc2ccccc2)C(=O)Nc2ccc(N3CCOCC3)cc2)cc1 [Compound 172, (S)-2-(4-Methylphenylsulfonamido)-N^1-(4-morpholinophenyl)-N^5-phenylpentanediamide] | −2.14 ± ? .1%
25 | Cc1ccc(S(=O)(=O)N[C@@H](CCC(=O)N2CCOCC2)C(=O)Nc2ccc(N3CCOCC3)cc2)cc1 [Compound 173, (S)-2-(4-Methylphenylsulfonamido)-5-morpholino-N-(4-morpholinophenyl)-5-oxopentanamide] | 0.1 ± 5.51%
26 | Cc1ccc(S(=O)(=O)N[C@@H](CCC(=O)Nc2ccc(F)cc2)C(=O)Nc2ccc(N3CCOCC3)cc2)cc1 [Compound 174, (S)—N^5-(4-fluorophenyl)-2-(4-methylphenylsulfonamido)-N^1-(4-morpholinophenyl)pentanediamide] | 10.8 ± 2.26%
27 | Cc1ccc(S(=O)(=O)N[C@@H](CCC(=O)Nc2ccc(C(C)(C)C)cc2)C(=O)Nc2ccc(N3CCOCC3)cc2)cc1 [Compound 175, (S)—N^5-(4-tert-butylphenyl)-2-(4-methylphenylsulfonamido)-N^1-(4-morpholinophenyl)pentanediamide] | 28.4 ± 4.82%
28 | Cc1ccc(S(=O)(=O)N[C@@H](CC(=O)Nc2ccc([N+](=O)[O-])cc2)C(=O)Nc2ccc(N3CCOCC3)cc2)cc1 [Compound 177, (S)-2-(4-Methylphenylsulfonamido)-N^1-(4-morpholinophenyl)-N^4-(4-nitrophenyl)succinamide] | 53.91 ± 0.92%
29 | O=C([C@H](Cc1c[nH]c2ccccc12)NS(=O)(=O)c1ccc(Br)cc1)n1ccc(-c2ccccc2)n1 [Compound 185, (S)—N-(3-(1H-indol-3-yl)-1-oxo-1-(3-phenyl-1H-pyrazol-1-yl)propan-2-yl)-4-bromobenzenesulfonamide] | 13.09 ± 18.13%
30 | CCCCCCCCCCCC(=O)NNC(=O)[C@H](Cc1c[nH]c2ccccc12)NS(=O)(=O)c1ccc(Br)cc1 [Compound 194, (S)-4-Bromo-N-(1-(2-dodecanoylhydrazinyl)-3-(1H-indol-3-yl)-1-oxopropan-2-yl)benzenesulfonamide] | 86.99 ± 0.6%
31 | Cc1ccc(S(=O)(=O)N[C@@H](Cc2c[nH]c3ccccc23)C(=O)NC23CC4CC(CC(C4)C2)C3)cc1 [Compound 204, (S)—N-((3R,5R,7R)-adamantan-1-yl)-3-(1H-indol-3-yl)-2-(4-methylphenylsulfonamido)propanamide] | 78.9 ± 2.62%
32 | COc1ccc(CCNC(=O)[C@H](Cc2c[nH]c3ccccc23)NS(=O)(=O)c2ccc(C)cc2)cc1 [Compound 205, (S)-3-(1H-indol-3-yl)-N-(4-methoxyphenethyl)-2-(4-methylphenylsulfonamido)propanamide] | 65.64 ± 5.37%
